Laboratory results taken from the supplement of paper PMC10307832.

Tests used:
Assay in all cases: relative viability (nuclei count vs DMSO), 5 days (fraction); higher = more cells survive
[1] = compound: CC1(C)CCC(c2ccc(Cl)cc2)=C(CN2CCN(c3ccc(C(=O)NS(=O)(=O)c4ccc(N[C@H](CCN5CCOCC5)CSc5ccccc5)c(S(=O)(=O)C(F)(F)F)c4)cc3)CC2)C1 [Navitoclax]
Summary of the method: (§1)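 Only plates meeting two conditions passed: control CV below 25% and at least one doubling. Lung cancer cell lines, kept overnight at 37 °C in 1536-well plates, were pinned with five library-drug doses (not always all listed) √10 apart on vehicle-anchored plates and grown 5 days without medium change. A one-step fix, permeabilisation and Hoechst stain preceded 4× imaging and MetaXpress nuclear counting. Viability equals treated-well nuclei divided by vehicle-well nuclei, as the median over plates.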

[2] = compound: CCCCCCCC[C@H]1[C@@H](C(=C)C(=O)O1)C(=O)O [C-75]
Summary of the method: as §1

[3] = compound: NC(=O)Nc1cc(-c2cccc(F)c2)sc1C(=O)N[C@H]1CCCNC1 [AZD7762]
Summary of the method: as §1

[4] = compound: O=C(O)c1ccc(-c2c[nH]c3ncc(-c4ccccc4)cc23)cc1C1CCCC1
Summary of the method: as §1

[5] = compound: Oc1nc(-c2ccc(C(F)(F)F)cc2)nc2c1CSCC2 [XAV939]
Summary of the method: as §1

Cell Line	relative viability ([1]; 0.005 µM)	relative viability ([1]; 0.01581 µM)	relative viability ([1]; 0.05 µM)	relative viability ([1]; 0.1581 µM)	relative viability ([1]; 0.5 µM)	relative viability ([2]; 0.08 µM)	relative viability ([2]; 0.253 µM)	relative viability ([2]; 0.8 µM)	relative viability ([2]; 2.53 µM)	relative viability ([2]; 8 µM)	relative viability ([3]; 0.01 µM)	relative viability ([3]; 0.03162 µM)	relative viability ([3]; 0.1 µM)	relative viability ([3]; 0.3162 µM)	relative viability ([3]; 1 µM)	relative viability ([4]; 0.04 µM)	relative viability ([4]; 0.1265 µM)	relative viability ([4]; 0.4 µM)	relative viability ([4]; 1.265 µM)	relative viability ([5]; 0.08 µM)	relative viability ([5]; 0.253 µM)	relative viability ([5]; 0.8 µM)	relative viability ([5]; 2.53 µM)	relative viability ([1]; 0.5 µM, anchor plate)	relative viability ([3]; 0.2 µM, anchor plate)
NCI-H661	0.985	0.995	1.05	0.916	0.935	0.983	1.01	0.98	0.911	0.94	1.03	1.11	1.1	0.979	0.558	0.915	1.02	0.969	1.01	1.02	0.952	0.945	0.956	–	–
NCI-H727	0.886	1.18	–	0.87	0.894	0.824	1.4	0.968	0.73	1.04	0.838	1.18	0.953	0.764	0.444	0.995	1.01	0.986	0.928	1.11	0.731	0.899	0.975	0.491	0.576
NCI-H838	0.964	1.02	1.08	1	0.97	0.989	0.82	0.941	0.867	0.895	1.04	0.982	1.01	0.942	0.599	0.972	1.16	0.994	0.926	0.965	0.892	0.805	0.624	1.21	0.944
NCI-H1299	1	1.05	1	1.01	1.03	1.01	0.98	1.02	0.899	1.03	1.06	1.01	1.06	1.02	0.56	1.03	1.04	0.957	0.878	1.04	0.939	1.06	1.03	1.03	–
NCI-H1355	1.03	1.07	0.956	0.975	0.986	0.966	1.01	0.921	0.89	0.982	0.874	0.979	0.938	1.09	0.785	1.02	1.14	0.979	0.744	0.938	0.831	0.826	0.759	1.01	0.819
NCI-H1395	0.998	0.943	0.922	0.905	1	0.828	0.893	0.794	0.788	1.04	0.931	1.11	1.06	0.461	0.408	0.94	1.01	0.893	0.837	0.918	0.903	0.88	0.972	1.25	0.398
NCI-H1437	0.969	1.05	0.932	0.958	0.974	0.941	1.05	0.919	0.984	0.987	1.05	0.963	1.04	1.01	0.867	0.962	0.988	0.976	0.586	1.03	0.901	0.999	0.93	1.06	1.11
NCI-H1563	0.973	1.04	0.9	1.04	1.28	1.06	1.06	0.884	0.92	1.08	1.02	1.01	0.993	1.05	0.914	1.07	1.03	0.958	1.01	0.978	0.987	0.822	0.698	–	–
NCI-H1623	0.936	0.957	0.812	0.984	1.03	1.02	1.22	1.02	0.931	0.978	0.869	0.938	0.936	1.1	0.895	0.963	0.995	0.932	0.762	0.922	0.838	0.848	0.814	–	–
NCI-H1648	0.914	1.07	–	0.78	1.09	0.758	1.27	0.737	–	0.899	1.29	1.08	0.87	0.932	0.99	1	1.15	0.75	0.768	0.794	0.764	0.887	0.737	–	0.676
NCI-H1650	0.896	1.16	0.97	1.01	0.857	0.925	0.984	0.927	0.976	1.09	0.96	0.929	0.95	0.627	0.267	0.891	1.08	0.985	0.716	0.955	0.844	0.888	0.616	1.2	–
NCI-H1651	0.989	1	0.802	0.942	1	0.956	1.02	0.952	0.935	0.969	1.02	0.98	1.03	0.956	0.531	0.931	1.08	0.968	0.784	1	0.85	0.943	1	1.06	0.495
NCI-H1666	1.02	1.02	0.853	1.02	1.01	1.05	1.21	0.946	0.721	0.96	1.09	1.04	1.1	1.01	0.98	0.958	1.01	0.949	0.68	1.03	0.98	0.977	0.929	0.994	0.895
NCI-H1703	0.907	1.05	0.933	0.994	0.939	0.993	0.929	0.83	0.869	0.817	0.767	0.35	0.276	0.174	0.194	0.949	1.04	1.11	1.02	1.05	0.98	0.929	0.812	1.18	0.132
